Reference: publication PMC11375794, “Discovery of new Hsp90–Cdc37 protein–protein interaction inhibitors: in silico screening and optimization of anticancer activity” (RSC Advances, 2024)

Key:
Assay type in all cases: cell-based
[1] = system: MCF-7 breast cancer cell line; test: MTS cell viability (antiproliferative) assay in MCF-7; settings: MTS assay, 72 hours, mean ± SD; for IC50: Homo sapiens, MCF7, 72 h
Protocol: (§1) Hormone-positive breast cancer cell line MCF-7 (ATCC-HTB-22; ATCC) was grown in Dulbecco's Modified Eagle's Medium (DMEM), while Ewing sarcoma cell line SK-N-MC (a kind gift from Beat Schäfer) and THP-1 (ATCC-TIB-202; ATCC) cells were grown in Roswell Park Memorial Institute (RPMI) 1640. The medium was supplemented with 10% heat-inactivated fetal bovine serum (Gibco, Thermo Fisher Scientific, Waltham, MA, USA), 100 U per mL penicillin, 100 μg per mL streptomycin, and 2 mM L-glutamine (all from Sigma-Aldrich, St. Louis, MO, USA). All cell lines were incubated at 37 °C in a 5% CO2 atmosphere.
(§2) The antiproliferative activity of the compounds was evaluated against MCF-7 (ATCC-HTB-22; ATCC), SK-N-MC (a kind gift from Beat Schäfer) and THP-1 (ATCC-TIB-202; ATCC) cancer cell lines using the MTS assay (Promega, Madison, WI, USA). Cells were seeded in 96-well plates at a density of 2 × 10^4 cells per mL in 100 μL of growth medium for THP-1 and were treated with compounds and controls directly, while 3 × 10^3 cells per mL for MCF-7 and SK-N-MC were seeded in 100 μL of growth medium and allowed to adhere overnight following the treatment. In all cases the cells were treated with respective newly prepared compounds, positive controls (17-DMAG for MCF-7 and SK-N-MC; PU-H71 for THP-1) and a vehicle control (0.5% DMSO). The incubation time after treatment was 72 hours, then CellTiter96® Aqueous One Solution Reagent (Promega, Madison, WI, USA) was added to each well. Following a 3 hours incubation, absorbance was measured at 492 nm using BioTek's Synergy™ 4 Hybrid Microplate Reader (Winooski, VT, USA). The measurements were performed in two biological repetitions and each time the experiment was performed in a triplicate. The IC50 values, representing the concentration of inhibitor required for half-maximal inhibition, are the average of three independent experiments and were calculated using GraphPad Prism 9.5.0 software (San Diego, CA, USA).

[2] = system: Ewing sarcoma cell line SK-N-MC; test: MTS cell viability (antiproliferative) assay in SK-N-MC; settings: 72 hours, mean ± SD; for IC50: Homo sapiens, SK-N-MC
Protocol: as §1, §2

leukemia cell line THP-1 = test: MTS cell viability (antiproliferative) assay in THP-1; settings: Homo sapiens, THP-1, 72 hours, mean ± SD
Protocol: as §1, §2

| SMILES | IC50 [1] | further results |
| --- | --- | --- |
| COc1ccc(OCCN(C)C(=O)c2csc(Nc3cc(C4CCCN(CC#N)C4)nc(C)n3)n2)cc1 (centres unmarked) [Compound 2] | 47.4 ± 0.9 µM |  |
| COc1ccccc1OCCN(C)C(=O)c1csc(Nc2cc(C3CCCN(CC#N)C3)nc(C)n2)n1 (centres unmarked) [Compound 3] | 34.9 ± 2.7 µM |  |
| CN(Cc1ccccc1)C(=O)c1csc(Nc2cc(N3CCCC3)ncn2)n1 [Compound 6a, N-Benzyl-N-methyl-2-((6-(pyrrolidin-1-yl)pyrimidin-4-yl)amino)thiazole-4-carboxamide] | 20.8 ± 2.2 µM |  |
| CN(CCc1ccccc1)C(=O)c1csc(Nc2cc(N3CCCC3)ncn2)n1 [Compound 6b, N-Methyl-N-phenethyl-2-((6-(pyrrolidin-1-yl)pyrimidin-4-yl)amino)thiazole-4-carboxamide] | 15.2 ± 0.7 µM |  |
| CN(CCOc1ccccc1)C(=O)c1csc(Nc2cc(N3CCCC3)ncn2)n1 [Compound 6c, N-Methyl-N-(2-phenoxyethyl)-2-((6-(pyrrolidin-1-yl)pyrimidin-4-yl)amino)thiazole-4-carboxamide] | 28.1 ± 1.4 µM | IC50 [2]: 26.2 ± 0.4 µM; IC50 (leukemia cell line THP-1): > 50 µM |
| CN(Cc1ccccc1)C(=O)c1csc(Nc2cc(N3CCNCC3)ncn2)n1 [Compound 8a, N-Benzyl-N-methyl-2-((6-(piperazin-1-yl)pyrimidin-4-yl)amino)thiazole-4-carboxamide] | 17.1 ± 1.4 µM |  |
| CN(CCc1ccccc1)C(=O)c1csc(Nc2cc(N3CCNCC3)ncn2)n1 [Compound 8b, N-Methyl-N-phenethyl-2-((6-(piperazin-1-yl)pyrimidin-4-yl)amino)thiazole-4-carboxamide] | 27.3 ± 2 µM |  |
| O=C(NCCc1ccccc1)c1cccc(Nc2cc(N3CCCC3)ncn2)c1 [Compound 11a, N-Phenethyl-3-((6-(pyrrolidin-1-yl)pyrimidin-4-yl)amino)benzamide] | 20.6 ± 3 µM |  |
| O=C(NCCOc1ccccc1)c1cccc(Nc2cc(N3CCCC3)ncn2)c1 [Compound 11b, N-(2-Phenoxyethyl)-3-((6-(pyrrolidin-1-yl)pyrimidin-4-yl)amino)benzamide] | 14.6 ± 4.5 µM | IC50 [2]: 26.9 ± 1 µM; IC50 (leukemia cell line THP-1): > 50 µM |
| CN(Cc1ccccc1)C(=O)c1cccc(Nc2cc(N3CCCC3)ncn2)c1 [Compound 11c, N-Benzyl-N-methyl-3-((6-(pyrrolidin-1-yl)pyrimidin-4-yl)amino)benzamide] | 36.7 ± 6.1 µM |  |
| CN(CCc1ccccc1)C(=O)c1cccc(Nc2cc(N3CCCC3)ncn2)c1 [Compound 11d, N-Methyl-N-phenethyl-3-((6-(pyrrolidin-1-yl)pyrimidin-4-yl)amino)benzamide] | 29.1 ± 5 µM |  |
| CN(CCOc1ccccc1)C(=O)c1cccc(Nc2cc(N3CCCC3)ncn2)c1 [Compound 11e, N-Methyl-N-(2-phenoxyethyl)-3-((6-(pyrrolidin-1-yl)pyrimidin-4-yl)amino)benzamide] | 34.1 ± 2.9 µM |  |
| O=C(NCCc1ccccc1)c1ccc(Nc2cc(N3CCCC3)ncn2)cc1 [Compound 11f, N-Phenethyl-4-((6-(pyrrolidin-1-yl)pyrimidin-4-yl)amino)benzamide] | > 50 µM |  |
| O=C(NCCOc1ccccc1)c1ccc(Nc2cc(N3CCCC3)ncn2)cc1 [Compound 11g, N-(2-Phenoxyethyl)-4-((6-(pyrrolidin-1-yl)pyrimidin-4-yl)amino)benzamide] | > 50 µM | SK-N-MC IC50 [2]: inactive; IC50 [2]: > 50 µM; IC50 (leukemia cell line THP-1): > 50 µM |
| CN(Cc1ccccc1)C(=O)c1ccc(Nc2cc(N3CCCC3)ncn2)cc1 [Compound 11h, N-Benzyl-N-methyl-4-((6-(pyrrolidin-1-yl)pyrimidin-4-yl)amino)benzamide] | 18.3 ± 7 µM |  |
| CN(CCc1ccccc1)C(=O)c1ccc(Nc2cc(N3CCCC3)ncn2)cc1 [Compound 11i, N-Methyl-N-phenethyl-4-((6-(pyrrolidin-1-yl)pyrimidin-4-yl)amino)benzamide] | 18 ± 1.5 µM |  |
| CN(CCOc1ccccc1)C(=O)c1ccc(Nc2cc(N3CCCC3)ncn2)cc1 [Compound 11j, N-Methyl-N-(2-phenoxyethyl)-4-((6-(pyrrolidin-1-yl)pyrimidin-4-yl)amino)benzamide] | > 50 µM |  |

| SMILES | IC50 [1] | further results |
| --- | --- | --- |
| O=C(NCCc1ccccc1)c1cccc(Nc2cc(N3CCNCC3)ncn2)c1 [Compound 13a, N-Phenethyl-3-((6-(piperazin-1-yl)pyrimidin-4-yl)amino)benzamide] | 31.9 ± 3.2 µM |  |
| O=C(NCCOc1ccccc1)c1cccc(Nc2cc(N3CCNCC3)ncn2)c1 [Compound 13b, N-(2-Phenoxyethyl)-3-((6-(piperazin-1-yl)pyrimidin-4-yl)amino)benzamide] | 22.5 ± 3.3 µM | IC50 [2]: 22.2 ± 0.2 µM; IC50 (leukemia cell line THP-1): > 50 µM |
| CN(Cc1ccccc1)C(=O)c1cccc(Nc2cc(N3CCNCC3)ncn2)c1 [Compound 13c, N-Benzyl-N-methyl-3-((6-(piperazin-1-yl)pyrimidin-4-yl)amino)benzamide] | 31.9 ± 2.1 µM |  |
| CN(CCc1ccccc1)C(=O)c1cccc(Nc2cc(N3CCNCC3)ncn2)c1 [Compound 13d, N-Methyl-N-phenethyl-3-((6-(piperazin-1-yl)pyrimidin-4-yl)amino)benzamide] | > 50 µM |  |
| CN(CCOc1ccccc1)C(=O)c1cccc(Nc2cc(N3CCNCC3)ncn2)c1 [Compound 13e, N-Methyl-N-(2-phenoxyethyl)-3-((6-(piperazin-1-yl)pyrimidin-4-yl)amino)benzamide] | > 50 µM |  |
| O=C(NCCc1ccccc1)c1ccc(Nc2cc(N3CCNCC3)ncn2)cc1 [Compound 13f, N-Phenethyl-4-((6-(piperazin-1-yl)pyrimidin-4-yl)amino)benzamide] | 17.9 ± 0.5 µM |  |
| CN(Cc1ccccc1)C(=O)c1ccc(Nc2cc(N3CCNCC3)ncn2)cc1 [Compound 13h, N-Benzyl-N-methyl-4-((6-(piperazin-1-yl)pyrimidin-4-yl)amino)benzamide] | 14.5 ± 4.7 µM |  |
| CN(CCc1ccccc1)C(=O)c1ccc(Nc2cc(N3CCNCC3)ncn2)cc1 [Compound 13i, N-Methyl-N-phenethyl-4-((6-(piperazin-1-yl)pyrimidin-4-yl)amino)benzamide] | 38.3 ± 4.9 µM |  |
| CN(CCOc1ccccc1)C(=O)c1ccc(Nc2cc(N3CCNCC3)ncn2)cc1 [Compound 13j, N-Methyl-N-(2-phenoxyethyl)-4-((6-(piperazin-1-yl)pyrimidin-4-yl)amino)benzamide] | 20.8 ± 2.7 µM |  |
| CN(CCc1ccccc1)C(=O)c1cccc(Nc2cc(N3CCCCC3)ncn2)c1 [Compound 14, N-Methyl-N-phenethyl-3-((6-(piperidin-1-yl)pyrimidin-4-yl)amino)benzamide] | > 50 µM |  |
| CN(CCc1ccccc1)C(=O)c1cccc(Nc2cc(N3CCC(N)CC3)ncn2)c1 [Compound 18, 3-((6-(4-Aminopiperidin-1-yl)pyrimidin-4-yl)amino)-N-methyl-N-phenethylbenzamide] | > 50 µM | MCF-7 IC50 [1]: not active |
| O=C(NCCOc1ccccc1)c1ccc(Nc2cc(N3CCCCC3)ncn2)cc1 [Compound 19, N-(2-Phenoxyethyl)-4-((6-(piperidin-1-yl)pyrimidin-4-yl)amino)benzamide] | > 50 µM |  |
| O=C(NCCOc1ccccc1)c1ccc(Nc2cc(N3CCOCC3)ncn2)cc1 [Compound 20, 4-((6-Morpholinopyrimidin-4-yl)amino)-N-(2-phenoxyethyl)benzamide] | > 50 µM |  |
| O=C(NCCOc1ccccc1)c1ccc(Nc2cc(N3CCC(O)CC3)ncn2)cc1 [Compound 21, 4-((6-(4-Hydroxypiperidin-1-yl)pyrimidin-4-yl)amino)-N-(2-phenoxyethyl)benzamide] | > 50 µM |  |
| NC1CCN(c2cc(Nc3ccc(C(=O)NCCOc4ccccc4)cc3)ncn2)CC1 [Compound 23, 4-((6-(4-Aminopiperidin-1-yl)pyrimidin-4-yl)amino)-N-(2-phenoxyethyl)benzamide] | > 50 µM |  |
| N#CCN1CCN(c2cc(Nc3ccc(C(=O)NCCOc4ccccc4)cc3)ncn2)CC1 [Compound 24, 4-((6-(4-(Cyanomethyl)piperazin-1-yl)pyrimidin-4-yl)amino)-N-(2-phenoxyethyl)benzamide] | > 50 µM | MCF-7 IC50 [1]: loss of activity |
